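Briefly, cells in 96-well plates were exposed to five compound concentrations for 48 h, and endpoints were estimated by linear interpolation. TGI: concentration producing complete growth inhibition.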
How the values were obtained:
Experiment in all cases: NCI-60 cell line screen, 48 h
786-0 renal = tested on: 786-0 renal
A498 renal = tested on: A498 renal
A549 NSCLC = tested on: A549 NSCLC
ACHN renal = tested on: ACHN renal
BT-549 breast = tested on: BT-549 breast
CAKI-1 renal = tested on: CAKI-1 renal
CCRF-CEM leukemia = tested on: CCRF-CEM leukemia
COLO 205 colon = tested on: COLO 205 colon
DU-145 prostate = tested on: DU-145 prostate
EKVX NSCLC = tested on: EKVX NSCLC
HCC-2998 colon = tested on: HCC-2998 colon
HCT-116 colon = tested on: HCT-116 colon
HCT-15 colon = tested on: HCT-15 colon
HL-60(TB) leukemia = tested on: HL-60(TB) leukemia
HOP-92 NSCLC = tested on: HOP-92 NSCLC
IGROV1 ovarian = tested on: IGROV1 ovarian
K-562 leukemia = tested on: K-562 leukemia
KM12 colon = tested on: KM12 colon
LOX IMVI melanoma = tested on: LOX IMVI melanoma
M14 melanoma = tested on: M14 melanoma
MALME-3M melanoma = tested on: MALME-3M melanoma
MCF7 breast = tested on: MCF7 breast
MDA-MB-231 breast = tested on: MDA-MB-231 breast
MDA-MB-435 = tested on: MDA-MB-435
MDA-N = tested on: MDA-N
MOLT-4 leukemia = tested on: MOLT-4 leukemia
NCI-H226 lung = tested on: NCI-H226 lung
NCI-H23 lung = tested on: NCI-H23 lung
NCI-H460 lung = tested on: NCI-H460 lung
NCI-H522 lung = tested on: NCI-H522 lung
NCI/ADR-RES ovarian = tested on: NCI/ADR-RES ovarian
OVCAR-3 ovarian = tested on: OVCAR-3 ovarian
OVCAR-4 ovarian = tested on: OVCAR-4 ovarian
OVCAR-5 ovarian = tested on: OVCAR-5 ovarian
OVCAR-8 ovarian = tested on: OVCAR-8 ovarian
PC-3 prostate = tested on: PC-3 prostate
RPMI-8226 leukemia = tested on: RPMI-8226 leukemia
RXF 393 renal = tested on: RXF 393 renal
SF-295 CNS = tested on: SF-295 CNS
SF-539 CNS = tested on: SF-539 CNS
SK-MEL-2 melanoma = tested on: SK-MEL-2 melanoma
SK-MEL-28 melanoma = tested on: SK-MEL-28 melanoma
SK-MEL-5 melanoma = tested on: SK-MEL-5 melanoma
SK-OV-3 ovarian = tested on: SK-OV-3 ovarian
SN12C renal = tested on: SN12C renal
SNB-19 CNS = tested on: SNB-19 CNS
SNB-75 CNS = tested on: SNB-75 CNS
SR leukemia = tested on: SR leukemia
SW-620 colon = tested on: SW-620 colon
TK-10 renal = tested on: TK-10 renal
U251 CNS = tested on: U251 CNS
UACC-257 melanoma = tested on: UACC-257 melanoma
UACC-62 melanoma = tested on: UACC-62 melanoma
UO-31 renal = tested on: UO-31 renal
HOP-62 NSCLC = tested on: HOP-62 NSCLC
HS 578T breast = tested on: HS 578T breast
HT29 colon = tested on: HT29 colon
SF-268 CNS = tested on: SF-268 CNS
T-47D breast = tested on: T-47D breast

Measured: TGI

COC(=O)CC1(CNC(=O)OCc2ccccc2)OCCO1
> 100 µM: 786-0 renal | A498 renal | A549 NSCLC | ACHN renal | BT-549 breast | CAKI-1 renal | CCRF-CEM leukemia | COLO 205 colon | DU-145 prostate | EKVX NSCLC | HCC-2998 colon | HCT-116 colon | HCT-15 colon | HL-60(TB) leukemia | HOP-92 NSCLC | IGROV1 ovarian | K-562 leukemia | KM12 colon | LOX IMVI melanoma | M14 melanoma | MALME-3M melanoma | MCF7 breast | MDA-MB-231 breast | MDA-MB-435 | MDA-N | MOLT-4 leukemia | NCI-H226 lung | NCI-H23 lung | NCI-H460 lung | NCI-H522 lung | NCI/ADR-RES ovarian | OVCAR-3 ovarian | OVCAR-4 ovarian | OVCAR-5 ovarian | OVCAR-8 ovarian | PC-3 prostate | RPMI-8226 leukemia | RXF 393 renal | SF-295 CNS | SF-539 CNS | SK-MEL-2 melanoma | SK-MEL-28 melanoma | SK-MEL-5 melanoma | SK-OV-3 ovarian | SN12C renal | SNB-19 CNS | SNB-75 CNS | SR leukemia | SW-620 colon | TK-10 renal | U251 CNS | UACC-257 melanoma | UACC-62 melanoma | UO-31 renal

CC(=O)OC1CC2CCC1(C)C2(C)C (centres undefined)
> 100 µM: 786-0 renal | A498 renal | ACHN renal | CCRF-CEM leukemia | COLO 205 colon | DU-145 prostate | HCC-2998 colon | HCT-116 colon | HCT-15 colon | HL-60(TB) leukemia | HOP-62 NSCLC | HS 578T breast | HT29 colon | IGROV1 ovarian | K-562 leukemia | KM12 colon | LOX IMVI melanoma | M14 melanoma | MALME-3M melanoma | MCF7 breast | MDA-MB-231 breast | MDA-MB-435 | MDA-N | MOLT-4 leukemia | NCI-H226 lung | NCI-H23 lung | NCI-H460 lung | NCI-H522 lung | NCI/ADR-RES ovarian | OVCAR-3 ovarian | OVCAR-4 ovarian | OVCAR-5 ovarian | OVCAR-8 ovarian | PC-3 prostate | RPMI-8226 leukemia | RXF 393 renal | SF-268 CNS | SF-295 CNS | SF-539 CNS | SK-MEL-2 melanoma | SK-MEL-28 melanoma | SK-OV-3 ovarian | SN12C renal | SNB-19 CNS | SNB-75 CNS | SW-620 colon | T-47D breast | TK-10 renal | U251 CNS | UACC-257 melanoma | UACC-62 melanoma | UO-31 renal

CCCNC(=S)N/N=C/c1cccc(C)n1
29 µM: HCT-116 colon
57 µM: UACC-62 melanoma
72.2 µM: NCI-H226 lung
27.2 µM: M14 melanoma
> 100 µM: 786-0 renal | COLO 205 colon | EKVX NSCLC | HCC-2998 colon | HCT-15 colon | HOP-62 NSCLC | HOP-92 NSCLC | HS 578T breast | HT29 colon | IGROV1 ovarian | KM12 colon | LOX IMVI melanoma | MALME-3M melanoma | MCF7 breast | MDA-MB-231 breast | MDA-MB-435 | MDA-N | NCI-H23 lung | NCI/ADR-RES ovarian | OVCAR-4 ovarian | OVCAR-5 ovarian | OVCAR-8 ovarian | PC-3 prostate | RPMI-8226 leukemia | RXF 393 renal | SF-295 CNS | SK-MEL-5 melanoma | SK-OV-3 ovarian | SN12C renal | T-47D breast | TK-10 renal | U251 CNS | UACC-257 melanoma | UO-31 renal
62.9 µM: SF-539 CNS
77.5 µM: K-562 leukemia
50.8 µM: HL-60(TB) leukemia
44.7 µM: ACHN renal
37 µM: NCI-H522 lung
87.3 µM: A498 renal
72.3 µM: MOLT-4 leukemia
48.3 µM: SR leukemia
7.05 µM: CCRF-CEM leukemia
58.9 µM: SK-MEL-2 melanoma
73.5 µM: A549 NSCLC

CCP(=O)(CC)C(Cl)(Cl)C(O)C(C)(C)C (centres undefined)
> 100 µM: A498 renal | A549 NSCLC | ACHN renal | CAKI-1 renal | CCRF-CEM leukemia | COLO 205 colon | DU-145 prostate | HCC-2998 colon | HCT-116 colon | HCT-15 colon | HOP-62 NSCLC | HOP-92 NSCLC | HS 578T breast | HT29 colon | IGROV1 ovarian | K-562 leukemia | LOX IMVI melanoma | M14 melanoma | MCF7 breast | MDA-MB-231 breast | MDA-MB-435 | MDA-N | MOLT-4 leukemia | NCI-H226 lung | NCI-H23 lung | NCI-H460 lung | NCI-H522 lung | NCI/ADR-RES ovarian | OVCAR-3 ovarian | OVCAR-4 ovarian | OVCAR-5 ovarian | OVCAR-8 ovarian | PC-3 prostate | RPMI-8226 leukemia | SF-295 CNS | SK-MEL-2 melanoma | SK-MEL-28 melanoma | SK-MEL-5 melanoma | SK-OV-3 ovarian | SN12C renal | SNB-19 CNS | SNB-75 CNS | SR leukemia | SW-620 colon | T-47D breast | TK-10 renal | U251 CNS | UACC-257 melanoma | UO-31 renal
